# In patent US10752607B2, “Polymorphs of N-[(6-cyano-2-fluoro)-3-methoxyphenyl)methyl]-3-(methoxymethyl)-1-({4-[(2-oxopyridin-1-yl)methyl]phenyl}methyl)pyrazole-4-carboxamide as kallikrein inhibitors” (KALVISTA PHARMACEUTICALS LIMITED, priority 2016, dated 2020):
# What was measured:
# [1] = in vivo; cited from earlier work
# rats = details: systemic administration; cited from earlier work
# Human FXIa = biological target: T1, Human FXIa (Homo sapiens, UniProt P03951); test: Determination of the % inhibition for FXIa (fluorogenic substrate Z-Gly-Pro-Arg-AFC); type: biochemical; details: 40 μM test compound, 25° C.
# T1 construct: purchased Enzyme Research Laboratories
# T1 sequence (P03951 388-625 limits assumed): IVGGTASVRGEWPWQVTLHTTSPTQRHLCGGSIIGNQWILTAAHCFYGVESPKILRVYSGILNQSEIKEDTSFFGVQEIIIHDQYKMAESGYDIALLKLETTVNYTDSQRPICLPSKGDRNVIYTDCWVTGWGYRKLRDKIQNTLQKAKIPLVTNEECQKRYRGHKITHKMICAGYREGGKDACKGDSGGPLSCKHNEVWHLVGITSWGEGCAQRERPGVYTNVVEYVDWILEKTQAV
# T1 sequence (P03951 19-387 partner limits assumed): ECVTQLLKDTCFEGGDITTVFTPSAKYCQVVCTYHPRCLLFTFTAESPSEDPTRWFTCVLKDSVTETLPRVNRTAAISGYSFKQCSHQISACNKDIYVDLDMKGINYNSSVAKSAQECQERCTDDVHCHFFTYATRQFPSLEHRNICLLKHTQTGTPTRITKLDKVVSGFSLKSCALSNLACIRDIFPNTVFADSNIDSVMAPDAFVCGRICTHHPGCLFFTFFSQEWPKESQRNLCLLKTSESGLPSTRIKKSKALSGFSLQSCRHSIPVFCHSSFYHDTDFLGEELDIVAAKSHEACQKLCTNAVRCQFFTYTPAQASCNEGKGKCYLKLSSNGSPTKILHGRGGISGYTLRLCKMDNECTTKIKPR
# Method: Determination of the % Inhibition for FXIa
# FXIa inhibitory activity in vitro was determined using standard published methods (see e.g. Johansen et al., Int. J. Tiss. Reac. 1986, 8, 185; Shori et al., Biochem. Pharmacol., 1992, 43, 1209; Stürzebecher et al., Biol. Chem. Hoppe-Seyler, 1992, 373, 1025). Human FXIa (Enzyme Research Laboratories) was incubated at 25° C. with the fluorogenic substrate Z-Gly-Pro-Arg-AFC and 40 μM of the test compound. Residual enzyme activity (initial rate of reaction) was determined by measuring the change in […].
# [2] = Pharmacokinetic study, single oral dose in male Sprague-Dawley rats; type: in vivo; details: male Sprague-Dawley rat, 10% DMSO/10% cremophor/80% SWFI, plasma
# Method: A pharmacokinetic study of N-[(6-cyano-2-fluoro-3-methoxyphenyl)methyl]-3-(methoxymethyl)-1-({4-[(2-oxopyridin-1-yl)methyl]phenyl}methyl)pyrazole-4-carboxamide was performed to assess the pharmacokinetics following a single oral dose in male Sprague-Dawley rats. Two rats were given a single po dose of 5 mL/kg of a nominal 2 mg/mL (10 mg/kg) composition of test compound in vehicle. Following dosing, blood samples were collected over a period of 24 hours. Sample times were 5, 15 and 30 minutes then 1, 2, 4, 6, 8 and […]. Following collection, blood samples were centrifuged and the plasma fraction analysed for concentration of test compound by LCMS.
# [3] = system: LPS-induced disseminated intravascular coagulation; details: cited from earlier work
# [4] = contacting blood with the inhibitor; cited from earlier work
# [5] = system: intrinsic pathway of coagulation; details: in vitro; cited from earlier work
compound,measurement,setting,value
N=C(N)c1ccc(CNC(=O)c2cnn(Cc3ccccc3)c2)cc1 [ASP-440],oral availability,[1],poor oral availability
same,hematoma expansion,rats,reduced hematoma expansion
COCc1nn(Cc2ccc(Cn3ccccc3=O)cc2)cc1C(=O)NCc1c(C#N)ccc(OC)c1F [N-[(6-cyano-2-fluoro-3-methoxyphenyl)methyl]-3-(methoxymethyl)-1-({4-[(2-oxopyridin-1-yl)methyl]phenyl}methyl)pyrazole-4-carboxamide],inhibition at 40 µM,Human FXIa,28%
same,Cmax,[2]; single po dose 5.5 mg/kg,397 ng/mL
same,Tmax,[2]; single po dose 5.5 mg/kg,30 min
same,Cmax,[2]; single po dose 7.8 mg/kg,360 ng/mL
same,Tmax,[2]; single po dose 7.8 mg/kg,60 min
Cl.NCC1CCC(C(=O)N[C@@H](Cc2ccccc2)C(=O)Nc2ccc(CC(=O)O)cc2)CC1 (stereo partly shown) [PKSI-527],"platelet count, fibrinogen level and FDP level",[3],significantly suppressed the decrease in platelet count and fibrinogen level as well as the increase in FDP level
Ecallantide,activated clotting time (ACT),[4],increase in activated clotting time (ACT)
same,contact activated induced coagulation,[5],delay contact activated induced coagulation
